Measurements as given in patent US7030134B2, “Pyrazolopyridinyl pyridine and pyrimidine therapeutic compounds” (SmithKline Beecham Corporation, priority 2001, dated 2006).
Counter-ions that a name gives are not always drawn.

test system: HSV-1; experiment: HSV-1 replication in infected Vero 76 cells, DNA hybridization capture assay; assay type: cell-based, herpes simplex virus 1; details: Human alphaherpesvirus 1, Vero 76
Description: Vero 76 cells were maintained in MEM with Earle's salts, L-glutamine, 8% FBS (Hyclone, A-1111-L) and 100 units/mL Penicillin-100 μg/mL Streptomycin. For assay conditions, FBS was reduced to 2%. Cells are seeded into 96-well tissue culture plates at a density of 5×10^4 cells/well after being incubated for 45 min at 37° C. in the presence of HSV-1 or HSV-2 (MOI=0.001). Test compounds are added to the wells and the plates are incubated at 37° C. for 40–48 hours. Cell lysates are prepared as follows: media was removed and replaced with 150 μL/well 0.2 N NaOH with 1% Igepal CA 630 or NP-40. Plates were incubated up to 14 days at room temperature in a humidified chamber to prevent evaporation.
For the detection probe, a gel-purified, digoxigenin-labeled, […] PCR fragment of the HSV UL-15 sequence was utilized. PCR conditions included 0.5 μM primers, 180 μM dTTP, 20 μM dUTP-digoxigenin (Boehringer Mannheim 1558706), 200 μM each of dATP, dCTP, and dGTP, 1×PCR Buffer II (Perkin Elmer), 2.5 mM MgCl2, 0.025 units/μL of AmpliTaq Gold polymerase (Perkin Elmer), and 5 ng of gel-purified HSV DNA per 100 μL. Extension conditions were 10 min at 95° C., followed by 30 cycles of 95° C. for 1 min, 55° C. for 30 sec, and 72° C. for 2 min. The amplification was completed with a 10-min incubation at 72° C. Primers were selected to amplify a 728 bp probe spanning a section of the HSV1 UL 15 open reading frame (nucleotides 249–977). Single-stranded transcripts were purified with Promega M13 Wizard kits. The final product was mixed 1:1 with a mixture of 6 M GuSCN, 100 mM EDTA and 200 μg/mL herring sperm DNA and stored at 4° C.
The capture DNA plasmid (HSV UL13 region in pUC) was linearized by cutting with Xba I, denatured for 15 min at 95° C. and diluted immediately into Reacti-Bind DNA Coating Solution (Pierce, 17250, diluted 1:1 with TE buffer, pH 8) at 1 ng/μL 75 μL/well were added to Corning (#3922 or 9690) white 96-well plates and incubated at room temperature for at least 4 hrs before washing twice with 300 μL/well 0.2×SSC/0.05% Tween-20 (SSC/T buffer). The plates were then incubated overnight at room temperature with 150 μL/well 0.2 N NaOH, 1% IGEPAL and 10 μg/mL herring sperm DNA.
Twenty-seven (27) μL of cell lysate was combined with 45 μL of hybridization solution (final concentration:3M GuSCN, 50 mM EDTA, 100 μg/ml salmon sperm DNA, 5× Denhardt's solution, 0.25×APE, and 5 ng of the digoxigenin-labeled detection probe). APE is 1.5 M NH4-acetate, 0.15 M NH4H2 phosphate, and 5 mM EDTA adjusted to pH 6.0. Mineral oil (50 μL) was added to prevent evaporation. The hybridization plates were incubated at 95° C. for 10 minutes to denature the DNA, then incubated at 42° C. overnight. The wells were washed 6× with 300 μL/well SSC/T buffer then incubated with 75 μL/well anti-digoxigenin-HRP-conjugated antibody (Boehringer Mannheim 1207733, 1:5000 in TE) for 30 min at room temperature. The wells were washed 6× with 300 μL/well with PBS/0.05% Tween-20 before 75 μL/well SuperSignal LBA substrate (Pierce) was added. The plates were incubated at room temperature for 30 minutes and chemiluminescence was measured in a Wallac Victor reader.
The following results were obtained for HSV-1.

Compound | IC50
[H]/N=C(/Nc1cc(Cl)cc2c(-c3ccnc(NC4CCCC4)n3)c(-c3ccc(F)cc3)nn12)NC1CCCC1 [Example 26, N-[5-Chloro-3-[2-(cyclopentylamino)pyrimidin-4-yl]-2-(4-fluorophenyl)pyrazolo[1,5-a]pyridin-7-yl]-N′-cyclopentylguanidine hydrochloride] | 260 nM

same assay, conditions: Human alphaherpesvirus 1; HSV-1 (MOI=0.001) in Vero 76 cells, 40–48 hours incubation, HSV DNA hybridization chemiluminescence readout; read-out: IC50

Compound | IC50
Fc1ccc(-c2nn3c(NC4CCCC4)cc(Cl)cc3c2-c2ccnc(NC3CCCC3)n2)cc1 [Example 13, N-{4-[5-Chloro-7-(cyclopentylamino)-2-(4-fluorophenyl)pyrazolo[1,5-a]pyridin-3-yl]-2-pyrimidinyl}-N-cyclopentylamine] | 170 nM
Fc1ccc(-c2nn3c(NC4CCCC4)cc(NC4CCCC4)cc3c2-c2ccnc(NC3CCCC3)n2)cc1 [Example 14, N^5,N^7-Dicyclopentyl-3-[2-(cyclopentylamino)-4-pyrimidinyl]-2-(4-fluorophenyl)pyrazolo[1,5-a]pyridine-5,7-diamine] | 240 nM
CC(C)Nc1cc(NC(C)C)n2nc(-c3ccc(F)cc3)c(-c3ccnc(NC4CCCC4)n3)c2c1 [Example 16, 3-[2-(Cyclopentylamino)-4-pyrimidinyl]-2-(4-fluorophenyl)-N^5,N^7-diisopropylpyrazolo[1,5-a]pyridine-5,7-diamine] | 550 nM
COc1ccc(-c2nn3c(Cl)cc(Cl)cc3c2-c2ccnc(NC3CCCC3)n2)cc1 [Example 17, N-Cyclopentyl-4-[5,7-dichloro-2-(4-methoxyphenyl)pyrazolo[1,5-a]pyridin-3-yl]-2-pyrimidinamine] | 5200 nM
COc1ccc(-c2nn3c(NC4CCCC4)cc(Cl)cc3c2-c2ccnc(NC3CCCC3)n2)cc1 [Example 18, N-{4-[5-Chloro-7-(cyclopentylamino)-2-(4-methoxyphenyl)pyrazolo-[1,5-a]pyridin-3-yl]-2-pyrimidinyl}-N-cyclopentylamine] | 250 nM
Cc1cccc(-c2nn3c(NC4CCCC4)cc(Cl)cc3c2-c2ccnc(NC3CCCC3)n2)c1 [Example 19, 5-Chloro-N-cyclopentyl-3-[2-(cyclopentylamino)pyrimidin-4-yl]-2-(3-methylphenyl)pyrazolo[1,5-a]pyridin-7-amine] | 200 nM
Cc1cccc(-c2nn3c(NC4CC4)cc(Cl)cc3c2-c2ccnc(NC3CCCC3)n2)c1 [Example 20, 5-Chloro-3-[2-(cyclopentylamino)pyrimidin-4-yl]-N-cyclopropyl-2-(3-methylphenyl)pyrazolo[1,5-a]pyridin-7-amine] | 500 nM
Cc1cccc(-c2nn3c(NC4CCCC4)cc(Cl)cc3c2-c2ccnc(NC3CC3)n2)c1 [Example 21, 5-Chloro-N-cyclopentyl-3-[2-(cyclopropylamino)pyrimidin-4-yl]-2-(3-methylphenyl)pyrazolo[1,5-a]pyridin-7-amine] | 600 nM
CN1CCN(c2cc(Cl)cc3c(-c4ccnc(NC5CCCC5)n4)c(-c4ccc(F)cc4)nn23)CC1 [Example 23, 4-[5-Chloro-2-(4-fluorophenyl)-7-(4-methyl-1-piperazinyl)pyrazolo[1,5-a]pyridin-3-yl]-N-cyclopentyl-2-pyrimidinamine] | 500 nM
Fc1ccc(-c2nn3c(N4CCCCC4)cc(Cl)cc3c2-c2ccnc(NC3CCCC3)n2)cc1 [Example 24, 4-[5-Chloro-2-(4-fluorophenyl)-7-(1-piperidinyl)pyrazolo[1,5-a]pyridin-3-yl]-N-cyclopentyl-2-pyrimidinamine] | 120 nM
Clc1cccc(-c2nn3c(Cl)cc(Cl)cc3c2-c2ccnc(NC3CCCC3)n2)c1 [Example 28, N-cyclopentyl-4-[5,7-dichloro-2-(3-chlorophenyl)pyrazolo[1,5-a]pyridin-3-yl]-2-pyrimidinamine] | 3500 nM
Clc1cc(NC2CC2)n2nc(-c3ccc(OCC4CC4)cc3)c(-c3ccnc(NC4CCCC4)n3)c2c1 [Example 32, 5-Chloro-3-[2-(cyclopentylamino)-4-pyrimidinyl]-N-cyclopropyl-2-[4-(cyclopropylmethoxy)phenyl]pyrazolo[1,5-a]pyridin-7-amine] | 800 nM
Clc1cc(NC2CCCC2)n2nc(-c3ccc(OCC4CC4)cc3)c(-c3ccnc(NC4CCCC4)n3)c2c1 [Example 34, 5-Chloro-3-[2-(cyclopentylamino)-4-pyrimidinyl]-N-cyclopentyl-2-[4-(cyclopropylmethoxy)phenyl]pyrazolo[1,5-a]pyridin-7-amine] | 120 nM
COc1ccc(-c2nn3c(NC4CCCC4)cc(Cl)cc3c2-c2ccnc([S+](C)[O-])n2)cc1 (stereo not shown) [Example 37, N-{5-Chloro-2-(4-methoxyphenyl)-3-[2-(methylsulfinyl)-4-pyrimidinyl]pyrazolo[1,5-a]pyridin-7-yl}-N-cyclopentylamine] | 6000 nM

Second part, the compound after the results:

IC50 | Compound
1450 nM | CC(C)Nc1cc(Cl)cc2c(-c3ccnc(NC4CCCC4)n3)c(-c3ccc(F)cc3)nn12 [Example 15, 5-Chloro-3-[2-(cyclopentylamino)-4-pyrimidinyl]-2-(4-fluorophenyl)-N-isopropylpyrazolo[1,5-a]pyridin-7-amine]
200 nM | Fc1ccc(-c2nn3c(NC4CC4)cc(Cl)cc3c2-c2ccnc(NC3CCCC3)n2)cc1 [Example 22, 5-Chloro-3-[2-(cyclopentylamino)-4-pyrimidinyl]-N-cyclopropyl-2-(4-fluorophenyl)pyrazolo[1,5-a]pyridin-7-amine]
190 nM | Fc1ccc(-c2nn3c(N4CCOCC4)cc(Cl)cc3c2-c2ccnc(NC3CCCC3)n2)cc1 [Example 25, 4-[5-Chloro-2-(4-fluorophenyl)-7-(4-morpholinyl)pyrazolo[1,5-a]pyridin-3-yl]-N-cyclopentyl-2-pyrimidinamine]
1600 nM | Fc1ccc(-c2nn3c(NC4CC4)cc(Cl)cc3c2-c2ccnc(NC3CC3)n2)cc1 [Example 27, 5-Chloro-N-cyclopropyl-3-[2-(cyclopropylamino)pyrimidin-4-yl]-2-(4-fluorophenyl)pyrazolo[1,5-a]pyridin-7-amine]
350 nM | Clc1cccc(-c2nn3c(NC4CCCC4)cc(Cl)cc3c2-c2ccnc(NC3CCCC3)n2)c1 [Example 29, N-{4-[5-chloro-2-(3-chlorophenyl)-7-(cyclopentylamino)pyrazolo[1,5-a]pyridin-3-yl]-2-pyrimidinyl}-N-cyclopentylamine]
330 nM | COc1ccc(-c2nn3c(NC4CC4)cc(Cl)cc3c2-c2ccnc(NC3CCCC3)n2)cc1 [Example 30, N-{4-[5-Chloro-7-(cyclopropylamino)-2-(4-methoxyphenyl)pyrazolo[1,5-a]pyridin-3-yl]-2-pyrimidinyl}-N-cyclopentylamine]
1500 nM | Oc1ccc(-c2nn3c(NC4CC4)cc(Cl)cc3c2-c2ccnc(NC3CCCC3)n2)cc1 [Example 31, 4-[5-Chloro-3-[2-(cyclopentylamino)-4-pyrimidinyl]-7-(cyclopropylamino)pyrazolo[1,5-a]pyridin-2-yl]phenol]
800 nM | Oc1ccc(-c2nn3c(NC4CCCC4)cc(Cl)cc3c2-c2ccnc(NC3CCCC3)n2)cc1 [Example 33, 4-[5-Chloro-3-[2-(cyclopentylamino)-4-pyrimidinyl]-7-(cyclopentylamino)pyrazolo[1,5-a]pyridin-2-yl]phenol]
> 40000 nM | COc1ccc(-c2nn3c(Cl)cc(Cl)cc3c2-c2ccnc(SC)n2)cc1 [Example 35, 5,7-dichloro-2-(4-methoxyphenyl)-3-[2-(methylthio)pyrimidin-4-yl]pyrazolo[1,5-a]pyridine]
22000 nM | COc1ccc(-c2nn3c(NC4CCCC4)cc(Cl)cc3c2-c2ccnc(SC)n2)cc1 [Example 36, N-{5-Chloro-2-(4-methoxyphenyl)-3-[2-(methylsulfanyl)-4-pyrimidinyl]pyrazolo[1,5-a]pyridin-7-yl}-N-cyclopentylamine]
